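Dose response: 5 concentrations. Exposure: 48 h. Format: 96-well plates. Endpoint: linear interpolation; highest concentration if not reached. Here, GI50 denotes the concentration required for 50% inhibition of growth. TGI: total growth inhibition.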 Where a SMILES comes first, the peptide text is derived from it. Some results are limits rather than exact numbers.

Usually TGI stands for the concentration at which net growth stops. Low readings indicate more potent growth arrest, high ones less potent growth arrest. By GI50 is commonly meant the concentration at which growth is held to half of that of the control.

Test systems include NCI-H23 lung; NCI/ADR-RES ovarian; SNB-19 CNS; MDA-MB-231 breast; SK-MEL-5 melanoma; OVCAR-8 ovarian; COLO 205 colon; HT29 colon; K-562 leukemia; A498 renal.
What all share (test): DTP human tumour cell line panel, 48 h

Take `CCCCCCCCCOC(=O)c1cnc(Cl)cn1`: the TGI came out at 33 µM in the assay on NCI-H23 lung; 48.2 µM in the assay with NCI/ADR-RES ovarian; 47.5 µM in the assay with SNB-19 CNS; 35.6 µM in the assay on MDA-MB-231 breast; 32.9 µM in the assay on SK-MEL-5 melanoma; 69.6 µM with OVCAR-8 ovarian. Moreover, the TGI was 51.1 µM in the assay on COLO 205 colon, 86.1 µM with HT29 colon and over 100 µM in the assay with K-562 leukemia.

As to `C=C1C(=O)O[C@@H]2[C@H]3O[C@]3(C)CCC=C(C)CC[C@@H]12`, the TGI in the assay with A498 renal was determined as 13.3 µM; with NCI-H23 lung it was 52.7 µM; with NCI/ADR-RES ovarian, 45.3 µM; in the assay with SNB-19 CNS, 163 µM; with SK-MEL-5 melanoma, 49.1 µM; in the assay on OVCAR-8 ovarian, 43.9 µM. Also, the total growth inhibition concentration (TGI) in the assay on COLO 205 colon came out at 31.7 µM; in the assay on HT29 colon, 68.8 µM; in the assay on K-562 leukemia, 130 µM.

Take `CC(C)(C)OC(=O)[N+](=N)C(=O)C1CCC(=O)N1C(=O)OCc1ccccc1` (stereo not drawn): the TGI with NCI-H23 lung, in the assay on NCI/ADR-RES ovarian, in the assay on SNB-19 CNS, in the assay with MDA-MB-231 breast, with SK-MEL-5 melanoma and in the assay with OVCAR-8 ovarian was over 100 µM each time. For the same compound, the TGI in the assay with COLO 205 colon, in the assay on HT29 colon and in the assay on K-562 leukemia was over 100 µM each time.

`CC1C(c2ccc(F)cc2)c2cc3c(cc2OC1N1CCCC1)OCO3` (stereo not drawn): the TGI with NCI-H23 lung, in the assay on NCI/ADR-RES ovarian, with SNB-19 CNS, in the assay on SK-MEL-5 melanoma, in the assay on OVCAR-8 ovarian and in the assay with COLO 205 colon was over 100 µM in each case. Also, the TGI with HT29 colon and in the assay on K-562 leukemia was over 100 µM in each case.

As to `CCCCCCCCC[C@@H]1C[C@@H]2CCC3C(C(=O)OC)=C(C)NC(=N1)N32` (stereo partly drawn), the TGI in the assay on NCI-H23 lung worked out at 16.3 µM; with NCI/ADR-RES ovarian, 52.2 µM; in the assay on SNB-19 CNS, 18.6 µM; in the assay on MDA-MB-231 breast, 20 µM; with SK-MEL-5 melanoma, 20.4 µM; in the assay with OVCAR-8 ovarian, 23.7 µM. For the same compound, the TGI was 15.1 µM with COLO 205 colon, 22.2 µM in the assay on HT29 colon and 72.2 µM in the assay on K-562 leukemia.

For the compound `c1ccc2c(c1)ccc1nc(-c3ccc4c(c3)OCO4)c3c(c12)CCCC3`, the TGI in the assay with A498 renal is 72.9 µM; in the assay with NCI-H23 lung, over 100 µM; in the assay on NCI/ADR-RES ovarian, over 100 µM; in the assay on SNB-19 CNS it was over 100 µM; in the assay on MDA-MB-231 breast, 44.3 µM; in the assay with OVCAR-8 ovarian, over 100 µM. For the same compound, the values for the concentration for total growth inhibition (TGI) in the assay on COLO 205 colon, in the assay with HT29 colon and in the assay on K-562 leukemia were 41.7 µM, over 100 µM and over 100 µM, respectively.

In the case of `COC(=O)c1ccccc1C1CN=NC12Cc1ccc3ccccc3c1C2=O` (stereo not drawn), the TGI in the assay on A498 renal, in the assay on NCI/ADR-RES ovarian, with SNB-19 CNS, in the assay on MDA-MB-231 breast, with SK-MEL-5 melanoma and with OVCAR-8 ovarian was over 100 µM throughout. The TGI in the assay on COLO 205 colon and in the assay with K-562 leukemia was over 100 µM throughout.

In the case of `CC(C)=CCC[C@]1(C)CC[C@]2(C)C3CCC(=C(C)C)[C@@H](CCCO)[C@]3(C)CC[C@@]2(C)C1` (stereo partly drawn), the TGI in the assay on A498 renal, in the assay with NCI-H23 lung, in the assay with NCI/ADR-RES ovarian, with SNB-19 CNS, with MDA-MB-231 breast and with SK-MEL-5 melanoma was over 100 µM throughout. For the same compound, the TGI in the assay on OVCAR-8 ovarian, with COLO 205 colon and in the assay on HT29 colon was over 100 µM in each case.

In the case of `CC1=C2C(O)C(C(C)C(=O)NCC(C)C)CCC2(C)C=CC1=O` (stereo not drawn), the TGI with A498 renal, with NCI-H23 lung, in the assay on NCI/ADR-RES ovarian, in the assay on SNB-19 CNS, with SK-MEL-5 melanoma and in the assay on OVCAR-8 ovarian was over 100 µM throughout. Also, the TGI with COLO 205 colon, in the assay with HT29 colon and in the assay on K-562 leukemia was over 100 µM throughout.

With `S=c1[nH]nc(COc2ccc3c(c2)CCCC3)n1/N=C/c1ccc(Cl)cc1`, the TGI turned out to be 35.9 µM with NCI-H23 lung; 33.7 µM in the assay with NCI/ADR-RES ovarian; 40 µM in the assay on SNB-19 CNS; 44.9 µM in the assay with MDA-MB-231 breast; 29.3 µM in the assay on SK-MEL-5 melanoma; 31.8 µM in the assay with OVCAR-8 ovarian. The TGI in the assay with COLO 205 colon stood at 31.2 µM; in the assay on K-562 leukemia, 50.2 µM.

Take `COc1c(CC=C(C)C)c(O)c(C(CC(C)C)c2c(O)c(C(C)=O)c(O)c3c2OC(C(C)(C)O)C3)c(O)c1C(C)=O` (stereo not drawn): the TGI with A498 renal is over 12.5 µM; in the assay with NCI-H23 lung, over 12.5 µM; in the assay with NCI/ADR-RES ovarian it was 12.2 µM; in the assay on SNB-19 CNS, over 12.5 µM; in the assay with SK-MEL-5 melanoma, 8.24 µM; with OVCAR-8 ovarian it was over 12.5 µM. In addition, the TGI in the assay on COLO 205 colon, in the assay on HT29 colon and in the assay with K-562 leukemia was over 12.5 µM throughout.

`CSC1=N/C(=C\c2ccc(C)cc2)C(=O)N1CN1CCOCC1`: the TGI in the assay on A498 renal, with NCI-H23 lung, in the assay with NCI/ADR-RES ovarian, in the assay with SNB-19 CNS, with MDA-MB-231 breast and in the assay with SK-MEL-5 melanoma was over 100 µM each time. Further, the TGI in the assay with OVCAR-8 ovarian, in the assay with COLO 205 colon and in the assay on K-562 leukemia was over 100 µM in each case.

For the compound `O=C(OCCN=C1c2ccccc2CCc2ccccc21)c1cc([N+](=O)[O-])cc([N+](=O)[O-])c1`, the TGI in the assay on NCI-H23 lung, in the assay with NCI/ADR-RES ovarian, in the assay on SNB-19 CNS, with MDA-MB-231 breast, in the assay on SK-MEL-5 melanoma and in the assay on OVCAR-8 ovarian was over 31.6 µM throughout. In addition, the TGI is over 31.6 µM with COLO 205 colon, over 31.6 µM in the assay with HT29 colon and over 100 µM in the assay with K-562 leukemia.

Regarding `CC(=O)/C(C=Nc1c(C)n(C)n(-c2ccccc2)c1=O)=C(/C)O`, the concentration for total growth inhibition (TGI) in the assay with A498 renal, in the assay with NCI-H23 lung, with NCI/ADR-RES ovarian, in the assay with SNB-19 CNS, in the assay on MDA-MB-231 breast and in the assay on SK-MEL-5 melanoma was over 100 µM each time. Further, the TGI in the assay on OVCAR-8 ovarian, with COLO 205 colon and in the assay with K-562 leukemia was over 100 µM each time.

For `O=C(NN=C1CCN(Cc2ccccc2)CC1)C(O)(c1ccccc1)c1ccccc1`, the TGI in the assay on NCI-H23 lung, in the assay on NCI/ADR-RES ovarian, in the assay with SNB-19 CNS, in the assay on MDA-MB-231 breast, with SK-MEL-5 melanoma and with OVCAR-8 ovarian was over 100 µM in each case. In addition, the TGI in the assay with COLO 205 colon and in the assay on HT29 colon was over 100 µM in each case.

In the case of `CC1NC(=O)CNC(=O)CNC(=O)C(Cc2ccc(O)cc2)NC(=O)C(C(C)C)NC(=O)C(C)NC1=O` (stereo not drawn) (cyclo(GGAAVY); configuration not given here), the GI50 with A498 renal is 75.6 µM; in the assay with K-562 leukemia it was over 100 µM. For the same compound, the TGI in the assay with A498 renal, with NCI-H23 lung, with NCI/ADR-RES ovarian, in the assay on SNB-19 CNS, with SK-MEL-5 melanoma and with OVCAR-8 ovarian was over 100 µM in each case. The TGI in the assay with COLO 205 colon, in the assay on HT29 colon and in the assay on K-562 leukemia was over 100 µM throughout.

Regarding `CSc1ccc2c(cc1=O)[C@@H](NC(C)=O)CCc1cc(O)c(O)c(O)c1-2`, the TGI with A498 renal is over 100 µM; in the assay with NCI-H23 lung it was 44.9 µM; in the assay on NCI/ADR-RES ovarian, 58.3 µM; with SNB-19 CNS it was 78.9 µM; in the assay with MDA-MB-231 breast, 72.2 µM; with SK-MEL-5 melanoma, over 100 µM. In addition, the results for the TGI in the assay on OVCAR-8 ovarian, in the assay with COLO 205 colon and in the assay on HT29 colon were 42.3 µM, over 100 µM and 29.2 µM, respectively.

In the case of `O=c1c2ccccc2nc2n1NC(c1c(Cl)cccc1Cl)N2c1cccc(Cl)c1` (stereo not drawn), the TGI with NCI-H23 lung is 56.7 µM; in the assay on NCI/ADR-RES ovarian it was 68.5 µM; in the assay on SNB-19 CNS, 18 µM; in the assay with MDA-MB-231 breast, 9.94 µM; in the assay on SK-MEL-5 melanoma, 65.5 µM; in the assay on OVCAR-8 ovarian, 12 µM. The TGI with COLO 205 colon, in the assay on HT29 colon and with K-562 leukemia was over 100 µM each time.

As for `CNC(=S)/C(=N\Nc1nc[nH]c1C(N)=O)C(N)=S`, the TGI was over 75.6 µM in the assay with A498 renal; over 94.7 µM with NCI-H23 lung; over 64.5 µM in the assay on NCI/ADR-RES ovarian; over 100 µM with SNB-19 CNS; over 24 µM with MDA-MB-231 breast; 81.3 µM in the assay on SK-MEL-5 melanoma. The figures for the TGI in the assay on OVCAR-8 ovarian, with COLO 205 colon and in the assay with HT29 colon were over 57.5 µM, 41.1 µM and over 100 µM, respectively.

For `Cc1cc2nc3n[nH]c(N)c3nc2cc1C`, the TGI in the assay on A498 renal, in the assay with NCI-H23 lung, with NCI/ADR-RES ovarian, in the assay on SNB-19 CNS, with MDA-MB-231 breast and with OVCAR-8 ovarian was over 100 µM in each case. The TGI in the assay with COLO 205 colon, with HT29 colon and in the assay on K-562 leukemia was over 100 µM throughout.

For the compound `NC(=O)NC(=O)c1cnccn1`, the TGI in the assay with A498 renal, with NCI-H23 lung, with NCI/ADR-RES ovarian, in the assay with SNB-19 CNS, in the assay with MDA-MB-231 breast and in the assay with K-562 leukemia was over 100 µM each time.

On to `Cc1[nH]c2ncn3nc(C(Cl)(Cl)Cl)nc3c2c1Cc1ccccc1`, for which the TGI in the assay with A498 renal, in the assay on NCI-H23 lung, in the assay with NCI/ADR-RES ovarian, with SNB-19 CNS, in the assay on MDA-MB-231 breast and with SK-MEL-5 melanoma was over 100 µM each time. Also, the TGI in the assay on OVCAR-8 ovarian, in the assay on COLO 205 colon and in the assay on HT29 colon was over 100 µM throughout.

These data come from PubChem BioAssay (NCI).
